Reference: patent US20110306576A1, “COMPOUNDS AND METHODS RELATING THERETO” (PHARMALUCIA LIMITED, priority 2009, published 2011)
Read-outs that look alike come from different tables or passages of the source.

Columns and labels:
[1] = Hydrophilic-lipophilic balance (Log P), phosphate-buffered saline / 1-octanol
Description: The data were calculated using the standard spectrophotometric method [ref] based on the relationship:
where A and A^1 are the absorption intensities before and after partitioning respectively and Vw and Vo are the respective volumes of the aqueous and 1-octanol phases. Determinations were repeated three times.

[2] = Singlet oxygen production (TPCPD decolourisation in dichloromethane); settings: singlet oxygen yield relative to methylene blue (= 1.0), time for 50% decrease in TPCPD absorption at 500 nm
Description: Thus the decrease in absorption at 500 nm was monitored spectrophotometrically with time using the method described by Cincotta et al. in “Novel red absorbing benzo[α]phenoxazinium and benzo[α]phenothiazinium photosensitizers: in vitro evaluation”, Photochem. […] To calculate the singlet oxygen yield for the derivative compounds of the present invention (ΦΔDer), the following formula was used:

[3] = test system: Escherichia coli (NCTC 10418); experiment: Antimicrobial screening, photobactericidal efficacy; type: cell-based
Description: (§1) The photobactericidal efficacies of the derivatives in addition to that of the known photosensitiser methylene blue were measured against both Gram positive Staphylococcus aureus (NCTC 6571) and Enterococcus faecalis (NCIMB 13280) and Gram negative Escherichia coli (NCTC 10418), Proteus mirabilis (NCIMB 5887) and a clinical strain of Klebsiella pneumoniae bacteria. Both strains were grown in Mueller-Hinton Broth and then diluted to a concentration of 10^6 colony-forming units/ml. Aliquots of the strains were then incubated for 1 hour at 37° C. in microtitre trays with various concentrations of photosensitiser in a range of from 100 to 3 μM, with zero photosensitiser concentrations in each case for control purposes. The trays were then either illuminated for twenty minutes using an array of light-emitting diodes (660 nm) giving a light dose of 6.2 J cm^−2 or alternatively foil-covered to provide dark controls. From each well showing an inhibition of growth of the micro-organism, 1 μl was sub-cultured on nutrient agar, using the Miles-Misra method, and incubated for 18 hours at 37° C. The minimum bactericidal concentrations were then determined as the lowest concentration for each photosensitiser giving no bacterial growth.

[4] = test system: Staphylococcus aureus (NCTC 6571); experiment: as above; type: cell-based
Description: as §1

[5] = value given for the standard photosensitiser; cited from earlier work
[6] = test system: Candida albicans (NCPF 8179); experiment: Antifungal screening; type: cell-based; settings: Sabouraud broth and agar; for Minimum bactericidal/fungicidal concentration C. albicans Dark: foil-covered dark control; for Minimum bactericidal/fungicidal concentration C. albicans Light: illuminated 20 min, LED 660 nm, 6.2 J cm^−2
[7] = test system: clinical strain of Klebsiella pneumoniae; experiment: Antimicrobial screening, photobactericidal efficacy; type: cell-based; settings: for Minimum bactericidal/fungicidal concentration K. pneumoniae Dark: foil-covered dark control; for Minimum bactericidal/fungicidal concentration K. pneumoniae Light: illuminated 20 min, LED 660 nm, 6.2 J cm^−2
Description: as §1

[8] = test system: Enterococcus faecalis (NCIMB 13280); experiment: as above; type: cell-based; settings: for Minimum bactericidal/fungicidal concentration E. faecalis Dark: foil-covered dark control; for Minimum bactericidal/fungicidal concentration E. faecalis Light: illuminated 20 min, LED 660 nm, 6.2 J cm^−2
Description: as §1

[9] = test system: Proteus mirabilis (NCIMB 5887); experiment: as above; type: cell-based; settings: for Minimum bactericidal/fungicidal concentration P. mirabilis Dark: foil-covered dark control; for Minimum bactericidal/fungicidal concentration P. mirabilis Light: illuminated 20 min, LED 660 nm, 6.2 J cm^−2
Description: as §1

[10] = phosphate-buffered saline / 1-octanol
[11] = Escherichia coli, NCTC10418, foil-covered dark control, read-out: Minimum Bactericidal Concentration E. coli (Dark)
[12] = Escherichia coli, NCTC10418, illuminated 20 min, LED 660 nm, 6.2 J cm^−2, 1 h incubation at 37° C., read-out: Minimum Bactericidal Concentration E. coli (Light)
[13] = Staphylococcus aureus, NCTC6571, foil-covered dark control, read-out: Minimum Bactericidal Concentration S. aureus (Dark)
[14] = Staphylococcus aureus, NCTC6571, illuminated 20 min, LED 660 nm, 6.2 J cm^−2, 1 h incubation at 37° C., read-out: Minimum Bactericidal Concentration S. aureus (Light)
[15] = partition between phosphate-buffered saline and 1-octanol, spectrophotometric method, repeated three times
[16] = foil-covered dark control, read-out: Minimum Bactericidal Concentration E. coli (Dark)
[17] = illuminated 20 min, LED 660 nm, 6.2 J cm^−2, 1 h incubation at 37° C., read-out: Minimum Bactericidal Concentration E. coli (Light)
[18] = foil-covered dark control, read-out: Minimum Bactericidal Concentration S. aureus (Dark)
[19] = illuminated 20 min, LED 660 nm, 6.2 J cm^−2, 1 h incubation at 37° C., read-out: Minimum Bactericidal Concentration S. aureus (Light)

With `CCN(CC)CCN(C)c1ccc2nc3ccc(N(CC)CC)cc3[s+]c2c1` [Example 7d, 3-(Diethylamino)-7-((2-(diethylamino)ethyl)(methyl)amino)phenothiazinium iodide] the logP [1, 10] was 0.74, the “Relative ΦΔ” value [2] was 1.4 and the MBC [3, 11] was 100 µM. The MBC [3, 12] was 50 µM, the MBC [4, 13] was 50 µM and the MBC [4, 14] was 25 µM.
In the case of `CN(C)c1ccc2nc3ccc(N(C)C)cc3[s+]c2c1` [Methylene blue, reference compound], the “Relative ΦΔ” value [2] is reported as 1.00, the MBC [3, 12] is reported as 25 µM and the MBC [4, 14] is reported as 25 µM. For the same molecule, the “singlet oxygen yield (ΦΔMB)” value [5] was 0.443.
In the case of `CCN(CC)CCCN(CCCN(CC)CC)c1ccc2nc3ccc(N(CCCN(CC)CC)CCCN(CC)CC)cc3[s+]c2c1` [Example 4b, 3,7-Bis(bis(3-(diethylamino)propyl)amino)phenothiazinium bromide], the logP [1, 10] is reported as 0.11, the MBC [3, 11] is reported as 100 µM and the MBC [3, 12] is reported as 25 µM. For the same molecule, the MBC [4, 13] was 100 µM and the MBC [4, 14] was 50 µM.
With `CCCCN(CCCC)c1ccc2nc3ccc(N(CC)CCN(CC)CC)cc3[s+]c2c1` [Example 7c, 3-(Di-n-butylamino)-7-((2-(diethylamino)ethyl)(ethyl)amino)phenothiazinium iodide] the logP [1, 10] was 1.09, the “Relative ΦΔ” value [2] was 0.3 and the “Minimum bactericidal/fungicidal concentration C. albicans Dark” value [6] was 25 µM. For the same molecule, the “Minimum bactericidal/fungicidal concentration C. albicans Light” value [6] was 3.13 µM, the MBC [3, 11] was 25 µM and the MBC [3, 12] was 6.25 µM. The “Minimum bactericidal/fungicidal concentration K. pneumoniae Dark” value [7] was 100 µM, the “Minimum bactericidal/fungicidal concentration K. pneumoniae Light” value [7] was 6.25 µM and the “Minimum bactericidal/fungicidal concentration E. faecalis Dark” value [8] was 6.25 µM. The “Minimum bactericidal/fungicidal concentration E. faecalis Light” value [8] was 0.39 µM, the MBC [4, 13] was 25 µM and the MBC [4, 14] was 12.5 µM. The “Minimum bactericidal/fungicidal concentration P. mirabilis Dark” value [9] was 100 µM and the “Minimum bactericidal/fungicidal concentration P. mirabilis Light” value [9] was 0.78 µM.
`CN(C)CCCN(CCCN(C)C)c1ccc2nc3ccc(N(CCCN(C)C)CCCN(C)C)cc3[s+]c2c1` [Example 4a, 3,7-Bis(bis(3-(dimethylamino)propyl)amino)phenothiazinium bromide] gave an MBC [3, 11] of 12.5 µM, an MBC [3, 12] of 3.12 µM and an MBC [4, 13] of 6.25 µM. It also gave an MBC [4, 14] of 3.12 µM.
In the case of `OCCN(CCO)c1ccc2nc3ccc(NCCCN4CCOCC4)cc3[s+]c2c1.[I-]` [Example 7f], the logP [1, 15] is reported as “+0.57”, the “Relative ΦΔ” value [2] is reported as 0.2 and the MBC [3, 16] is reported as 50 µM. It also gave an MBC [3, 17] of 25 µM, an MBC [4, 18] of 25 µM and an MBC [4, 19] of 25 µM.
In the case of `CCCN(CCC)c1ccc2nc3ccc(N(CCCN(C)C)CCCN(C)C)cc3[s+]c2c1` [Example 7e, 3-(Bis(3-(dimethylamino)propyl)amino)-7-(di-n-propylamino)phenothiazinium iodide], the “Minimum bactericidal/fungicidal concentration C. albicans Dark” value [6] is reported as 100 µM, the “Minimum bactericidal/fungicidal concentration C. albicans Light” value [6] is reported as 3.13 µM and the MBC [3, 11] is reported as > 100 µM. The MBC [3, 12] was 3.12 µM, the “Minimum bactericidal/fungicidal concentration K. pneumoniae Dark” value [7] was 100 µM and the “Minimum bactericidal/fungicidal concentration K. pneumoniae Light” value [7] was 3.13 µM. For the same molecule, the “Minimum bactericidal/fungicidal concentration E. faecalis Dark” value [8] was 100 µM, the “Minimum bactericidal/fungicidal concentration E. faecalis Light” value [8] was 0.19 µM and the MBC [4, 13] was > 100 µM. For the same molecule, the MBC [4, 14] was 3.12 µM, the “Minimum bactericidal/fungicidal concentration P. mirabilis Dark” value [9] was 100 µM and the “Minimum bactericidal/fungicidal concentration P. mirabilis Light” value [9] was 0.39 µM.
For `CCN(CC)CCN(C)c1ccc2nc3ccc(N(C)CCN(CC)CC)cc3[s+]c2c1` [Example 4f, 3,7-Bis((2-(diethylamino)ethyl)(methyl)amino)phenothiazinium bromide], the logP [1, 10] was 0.27, the “Relative ΦΔ” value [2] was 0.6 and the MBC [3, 11] was > 100 µM. For the same molecule, the MBC [3, 12] was 3.12 µM, the MBC [4, 13] was > 100 µM and the MBC [4, 14] was 6.25 µM.
For `CCCCN(CCCC)c1ccc2nc3ccc(N4CCN(CCN5CCN(c6ccc7nc8ccc(N(CCCC)CCCC)cc8[s+]c7c6)CC5)CC4)cc3[s+]c2c1.[I-].[I-]` [Example 7g, 7,7′-(4,4′-(ethane-1,2-diyl)bis(piperazine-4,1-diyl))bis(3-(dibutylamino)phenothiazin-5-ium)iodide], the “Minimum bactericidal/fungicidal concentration C. albicans Dark” value [6] was 25 µM, the “Minimum bactericidal/fungicidal concentration C. albicans Light” value [6] was 3.13 µM and the “Minimum bactericidal/fungicidal concentration K. pneumoniae Dark” value [7] was 100 µM. The “Minimum bactericidal/fungicidal concentration K. pneumoniae Light” value [7] was 3.13 µM, the “Minimum bactericidal/fungicidal concentration E. faecalis Dark” value [8] was 12.5 µM and the “Minimum bactericidal/fungicidal concentration E. faecalis Light” value [8] was 1.56 µM. The “Minimum bactericidal/fungicidal concentration P. mirabilis Dark” value [9] was 100 µM and the “Minimum bactericidal/fungicidal concentration P. mirabilis Light” value [9] was 0.78 µM.
In the case of “3-(Di-n-hexylamino)-7-((2-(diethylamino)ethyl)(ethyl)amino)phenothiazinium iodide [Example 7b]”, the logP [1, 15] is reported as “+1.25”, the “Relative ΦΔ” value [2] is reported as 0.4 and the “Minimum bactericidal/fungicidal concentration C. albicans Dark” value [6] is reported as 25 µM. The “Minimum bactericidal/fungicidal concentration C. albicans Light” value [6] was 3.13 µM, the MBC [3, 16] was 25 µM and the MBC [3, 17] was 6.25 µM. The “Minimum bactericidal/fungicidal concentration K. pneumoniae Dark” value [7] was 100 µM, the “Minimum bactericidal/fungicidal concentration K. pneumoniae Light” value [7] was 0.19 µM and the “Minimum bactericidal/fungicidal concentration E. faecalis Dark” value [8] was 100 µM. The “Minimum bactericidal/fungicidal concentration E. faecalis Light” value [8] was 0.19 µM, the MBC [4, 18] was 12.5 µM and the MBC [4, 19] was 3.125 µM. For the same molecule, the “Minimum bactericidal/fungicidal concentration P. mirabilis Dark” value [9] was 100 µM and the “Minimum bactericidal/fungicidal concentration P. mirabilis Light” value [9] was 0.39 µM.
With `CCN(CC)CCCC(C)Nc1ccc2nc3ccc(N(CC)CC)cc3[s+]c2c1` (stereo not drawn) [Example 7a, 3-(Diethylamino)-7-(5-(diethylamino)pentan-2-ylamino)phenothiazinium iodide] the logP [1, 10] was 0.65, the “Relative ΦΔ” value [2] was 0.2 and the MBC [3, 11] was 100 µM. The MBC [3, 12] was 50 µM, the MBC [4, 13] was 100 µM and the MBC [4, 14] was 25 µM.
With `CO[Si](CCCNc1ccc2nc3ccc(N(C)C)cc3[s+]c2c1)(OC)OC` [Example 2b, 3-(3-Trimethoxsilylpropyl)amino-7-dimethylaminophenothiazinium hydrogensulphate] the “Minimum bactericidal/fungicidal concentration C. albicans Dark” value [6] was 25 µM, the “Minimum bactericidal/fungicidal concentration C. albicans Light” value [6] was 3.13 µM and the “Minimum bactericidal/fungicidal concentration K. pneumoniae Dark” value [7] was 100 µM. For the same molecule, the “Minimum bactericidal/fungicidal concentration K. pneumoniae Light” value [7] was 1.56 µM, the “Minimum bactericidal/fungicidal concentration E. faecalis Dark” value [8] was 50 µM and the “Minimum bactericidal/fungicidal concentration E. faecalis Light” value [8] was 0.78 µM. For the same molecule, the “Minimum bactericidal/fungicidal concentration P. mirabilis Dark” value [9] was 100 µM and the “Minimum bactericidal/fungicidal concentration P. mirabilis Light” value [9] was 1.56 µM.
